Data as given in patent US7361774B2, “Chalcone compound” (Takara Bio Inc., priority 2002, dated 2008).

What was measured:
RAW 264.7 cells [1] = experiment: Suppressive activity for NO production induced by LPS (NO2- in medium); type: cell-based; conditions: compound a 1.5, 3, 6, 12 μM; compound b 3, 6, 12, 24 μM; LPS 15 hours
Protocol: RAW 264.7 cells (ATCC TIB 71) were suspended in Dulbecco's modified Eagle's medium (manufactured by Bio Whittaker, 12-604F) containing 10% fetal bovine serum (manufactured by GIBCO), so as to have a concentration of 4×10^5 cells/ml, and the suspension was put to each well of a 48-well microtiter plate in an amount of 500 μl per well. The cells were cultured at 37° C. in the presence of 5% carbon dioxide gas. After 24 hours, the medium was exchanged with Dulbecco's modified Eagle's medium (manufactured by Bio Whittaker, 12-917F) containing 10% fetal bovine serum (manufactured by GIBCO), 2 mM L-glutamine (manufactured by Life Tech Oriental Co., Ltd., 25030-149) without containing phenol red. The compound a (dimethyl sulfoxide solution) was added to each well so as to have a concentration of 1.5, 3, 6, or 12 μM, or the compound b (dimethyl sulfoxide solution) was added to each well so as to have a concentration of 3, 6, 12, or 24 μM. […] Thereafter, the concentration of NO2^− which was produced by oxidation of NO in the medium was determined. […] Thereafter, absorbance at 540 nm was determined. The concentration of NO2 − in the medium was calculated from a calibration curve prepared from known concentrations of NaNO2. […]

[2] = target: T1, aldose reductase derived from human muscle cells (Homo sapiens, UniProt P15121); experiment: Inhibitory activity for aldose reductase (NADPH absorbance at 340 nm, methylglyoxal substrate); type: biochemical
T1 construct: purchased Wako Pure Chemical Industries
Protocol: (1) Inhibitory activities for aldose reductase of the compounds a and b were measured by the following method. Twenty microliters of 100 mM methylglyoxal was added to 10 μl of the compound a or b (dissolved in a 50% aqueous dimethyl sulfoxide solution) as a sample, 100 μl of 0.2 M phosphate buffer (pH 6.2), 20 μl of 1 mM NADPH (phosphate buffer), 10 μl of a solution of aldose reductase derived from human muscle cells (0.1 U/ml, manufactured by Wako Pure Chemical Industries, phosphate buffer). After 30 seconds passed, change in absorbance of NADPH at 340 nm was determined for 180 seconds. A 50% aqueous dimethyl sulfoxide solution was used as a negative control in place of the sample. In addition, the absorbance was determined using distilled water as a blank of each sample in place of the methylglyoxal solution. The found values are expressed as an average of the values in two experimental values. The inhibitory ratio (%) for aldose reductase was calculated in accordance with the following formula. Inhibitory Ratio (%)=[1-[(ΔAs−ΔAsb)/(ΔAc−ΔAcb)]]×100
Here, ΔAs and ΔAc are changes in absorbance per 1 minute of a sample solution, and a negative control solution, respectively, and ΔAsb and ΔAcb are changes in absorbance per 1 minute of blank of a sample solution, and a negative control solution, respectively.

RAW 264.7 cells [3] = experiment: Suppressive activity for IL-6 production induced by LPS (sandwich enzyme immunoassay); type: cell-based; conditions: compound a 1.5, 3, 6, 12 μM; compound b 3, 6, 12, 24 μM; LPS 15 hours
Protocol: RAW 264.7 cells (ATCC TIB 71) were suspended in Dulbecco's modified Eagle's medium (manufactured by Bio Whittaker, 12-604F) containing 10% fetal bovine serum (manufactured by GIBCO) so as to have a concentration of 4×10^5 cells/ml, and the suspension was put to each well of a 48-well microtiter plate in an amount of 500 μl per well. The cells were cultured at 37° C. in the presence of 5% carbon dioxide gas. After 24 hours, the medium was exchanged with Ultra CHO medium (manufactured by Bio Whittaker, 12-724Q). The compound a (dimethyl sulfoxide solution) was added to each well so as to have a concentration of 1.5, 3, 6, or 12 μM, or the compound b (dimethyl sulfoxide solution) was added to each well so as to have a concentration of 3, 6, 12, or 24 μM. After additional 4 hours of culture, a 100 μg/ml aqueous lipopolysaccharide (LPS, manufactured by Sigma, L-2010) solution was added to each well in an amount of 5 μl per well, and the cells were cultured for 15 hours. Thereafter, the supernatant of the medium was collected. The content of interleukin 6 (IL-6) in the supernatant of the medium was determined with a sandwich enzyme immunoassay (manufactured by genzyme TECHNE, 4922). In addition, there were set a group without addition of the compounds a and b as a positive control, and a group without addition of LPS as a negative control. All of the determinations were carried out twice. […]

[4] = test system: PC12 cells derived from rat adrenal medulla pheochromocytoma; experiment: Suppressive activity for NO toxicity (SNP) in PC12 cells, MTT; type: cell-based; conditions: 10 μM compound b, 50 μM SNP, 66 hours, control without compound and SNP = 100, SNP alone 48.1
Protocol: (2) The suppressive activity of the compound b for NO toxicity was assayed in accordance with the following method. PC12 cells derived from rat adrenal medulla pheochromocytoma were suspended in DMEM medium containing 10% fetal bovine serum so as to have a concentration of 1.5×10^5 cells/ml. The suspension was put to each well of a 96-well plate in an amount of 0.1 ml per well, and cultured at 37° C. in the presence of 5% carbon dioxide gas. After 24 hours of culture, the medium was removed, and exchanged with DMEM medium containing 10 μM of the compound b and 10% fetal bovine serum. After the cells were cultured for 2 hours, SNP was added thereto so as to have a concentration of 50 μM, and the cells were cultured for 66 hours. After the termination of the culture, the MTT determination was carried out in the same manner as in item (1) of Example 4, and the viability ratio (%) of cells was calculated. All of the determinations were carried out three times.

[5] = test system: PC12 cells (CRL-1721) derived from rat adrenal medulla pheochromocytoma, differentiated into neuron-like cells; experiment: Neuronal protection from NO toxicity (SNP) in NGF-differentiated PC12 cells, MTT; type: cell-based; conditions: 10 μM compound b, 50 μM SNP, 48 hours, control without compound and SNP = 100, SNP alone 59.1
Protocol: (1) The suppressive activity for NO toxicity of the compound b was assayed in accordance with the following method. PC12 cells (CRL-1721) derived from rat adrenal medulla pheochromocytoma were suspended in DMEM medium (manufactured by Bio Whittaker) containing 10% fetal bovine serum (manufactured by Bio Whittaker) so as to have a concentration of 1×10^5 cells/ml. The suspension was put in each well of a 96-well plate in an amount of 0.1 ml per well, and the cells were cultured at 37° C. in the presence of 5% carbon dioxide gas. After the cells were cultured for 24 hours, the medium was removed and exchanged with DMEM medium containing 10 ng/ml of NGF (manufactured by TAKARA BIO Inc.) and 10% fetal bovine serum. PC12 cells were cultured for 3 days, and differentiated into neuron-like cells. After the culture, the medium was removed and exchanged with DMEM medium containing 10 μM of the compound b, 10 ng/ml of NGF, and 10% fetal bovine serum. […] Solubilized formazan was determined at a wavelength of 590 nm (control wavelength of 630 nm). […] Viability ratio (%) of cells was calculated from MTT found values of each test group by defining the MTT value of the control group (group not containing the compound b and SNP) as 100.

Row | Inhibitory Ratio (%) for Aldose Reductase ([2]; final concentration 2.5 μM) | Inhibitory Ratio (%) for Aldose Reductase ([2]; final concentration 5 μM) | Inhibitory Ratio (%) for Aldose Reductase ([2]; final concentration 10 μM) | Inhibitory Ratio (%) for Aldose Reductase ([2]; final concentration 20 μM) | SMILES | Suppression of induction for NO production by LPS (NO2- concentration in medium, FIG. 7) (RAW 264.7 cells [1]) | Inhibition of induction of IL-6 production by LPS (IL-6 in supernatant, FIG. 8) (RAW 264.7 cells [3]) | Viability Ratio (%) of Cells [4] | Viability Ratio (%) of Cells [5]
1 | 33.3% | 48.4% | 65.7% | 77.2% | CC12CCC(O)C(C)(C)C1Cc1c(O)ccc(C(=O)/C=C/c3ccc(O)cc3)c1O2 (single isomer, unassigned) [Compound a, (E)-1-(5,6,7,8,8a,10a-hexahydro-1,7-dihydroxy-8,8,10a-trimethyl-9H-xanthen-4-yl)-3-(4-hydroxyphenyl)-2-propen-1-one] | supppressed the induction for NO production by LPS in a concentration-dependent manner | inhibited the induction of IL-6 production by LPS in a concentration-dependent manner |  | 
2 | 35.1% | 50.6% | 66.8% | 79.1% | CC(C)=CCCC1(C)Oc2c(C(=O)/C=C/c3ccc(O)cc3)ccc(O)c2CC1O (single isomer, unassigned) [Compound b, (E)-1-(3,4,-dihydro-3,5-dihydroxy-2-(3-isohexeneyl)-2-methyl-2H-1-benzopyran-8-yl)-3-(4-hydroxyphenyl)-2-propene-1-one] | supppressed the induction for NO production by LPS in a concentration-dependent manner | inhibited the induction of IL-6 production by LPS in a concentration-dependent manner | 91.0% | 87.4%
